Results as given in patent US20230256033A1, “PHYSIOLOGICALLY ACCEPTABLE COMPOSITIONS CONTAINING MICROORGANISMS OR MICROBIAL PRODUCTS” (FLAGSHIP PIONEERING INNOVATIONS VI, LLC, priority 2020, published 2023).

Tested on: LPS induced NFkB activity in THP1-Blue™ cells
Experiment: Suppression of LPS induced NFkB in human monocyte THP-1 reporter cells (THP1-BLUE NFkB, SEAP)
Format: cell-based
Conditions: IKK 16 at 2 μM; LPS 100 ng/mL 18 hours

## O=C(c1ccc(Nc2nccc(-c3cc4ccccc4s3)n2)cc1)N1CCC(N2CCCC2)CC1 [IKK 16]
  Suppression of LPS induced NFkB activity in THP1-Blue ™ cells (control for suppression): −80%
